The text below walks through data of ChEMBL document CHEMBL1151000, “Novel synthetic rotenoids with blocked B/C ring systems” (Bioorg Med Chem Lett, 1992).

pIC50: −log10 of the molar value. A value given as a limit tells only on which side of the number the result lay.

The nature of data set [1]: The compound was evaluated for the insecticidal activity against housefly without cytochrome P450 oxidase inhibitor piperonyl butoxide. Particulars: musca domestica.
The nature of data set [2]: The compound was evaluated for the inhibition of NADH dehydrogenase.
A short description of data set [3]: The compound was evaluated for the insecticidal activity against housefly with cytochrome P450 oxidase inhibitor piperonyl butoxide. Format: ADME. Particulars: musca domestica.

On to `C=C(C)[C@H]1Cc2c(ccc3c2O[C@@H]2COc4cc(OC)c(OC)cc4[C@@H]2C3=O)O1` [ROTENONE], for which the values for the LD50 in data set [1] and in data set [3] were 10 ug fly-1 and 5 ug fly-1, respectively. The compound further showed a pIC50 in data set [2] of 8.46.

Take `C=C(C)[C@H]1Cc2c(ccc3c2OC24COc5cc(OC)c(OC)cc5C2(C4)C3=O)O1` (some centres not stated): the pIC50 in data set [2] is 7.10. Moreover, the LD50 in data set [3] was found to be 10 ug fly-1.

`C=C(C)[C@H]1Cc2c(ccc3c2O[C@@H]2COc4cc(OC)c(OC)cc4[C@@]2(C)C3=O)O1.C=C(C)[C@H]1Cc2c(ccc3c2O[C@H]2COc4cc(OC)c(OC)cc4[C@]2(C)C3=O)O1`: the results for the LD50 in data set [1] and in data set [3] were over 10 ug fly-1 and 4 ug fly-1, respectively. The pIC50 in data set [2] was 6.44.

Consider `C=C(C)[C@H]1Cc2c(ccc3c2O[C@@H]2COc4cc(OC)c(OC)cc4[C@]2(C)C3=O)O1`, for which the LD50 in data set [1] turned out to be 2 ug fly-1; in data set [3], 0.2 ug fly-1. For the same compound, the pIC50 in data set [2] is 7.77.

`COc1cc2c(cc1OC)[C@]1(C)C(=O)c3ccc4c(c3O[C@@H]1CO2)C[C@H](C(C)C)O4` gave a pIC50 in data set [2] of 7.80.

In general, pIC50 refers to the IC50 on a negative log10 scale, so that one unit is a factor of ten. Read a low pIC50 as a high IC50.
